{"source": "patent US7709516B2", "about": "“Helix 12 directed non-steroidal antiandrogens” (Endorecherche, Inc., priority 2005, dated 2010)", "key": {"[1]": {"test_system": "Shionogi mouse mammary carcinoma cells", "assay": "Androgenic/antiandrogenic activity: inhibition of DHT-stimulated Shionogi cell number", "assay_type": "cell-based", "conditions": "Mus musculus, DHT-stimulated Shionogi cell number"}, "Human Androgen Receptor": {"molecular_target": "T1, Human Androgen Receptor (Homo sapiens, UniProt P10275)", "T1 sequence (P10275 1-920)": "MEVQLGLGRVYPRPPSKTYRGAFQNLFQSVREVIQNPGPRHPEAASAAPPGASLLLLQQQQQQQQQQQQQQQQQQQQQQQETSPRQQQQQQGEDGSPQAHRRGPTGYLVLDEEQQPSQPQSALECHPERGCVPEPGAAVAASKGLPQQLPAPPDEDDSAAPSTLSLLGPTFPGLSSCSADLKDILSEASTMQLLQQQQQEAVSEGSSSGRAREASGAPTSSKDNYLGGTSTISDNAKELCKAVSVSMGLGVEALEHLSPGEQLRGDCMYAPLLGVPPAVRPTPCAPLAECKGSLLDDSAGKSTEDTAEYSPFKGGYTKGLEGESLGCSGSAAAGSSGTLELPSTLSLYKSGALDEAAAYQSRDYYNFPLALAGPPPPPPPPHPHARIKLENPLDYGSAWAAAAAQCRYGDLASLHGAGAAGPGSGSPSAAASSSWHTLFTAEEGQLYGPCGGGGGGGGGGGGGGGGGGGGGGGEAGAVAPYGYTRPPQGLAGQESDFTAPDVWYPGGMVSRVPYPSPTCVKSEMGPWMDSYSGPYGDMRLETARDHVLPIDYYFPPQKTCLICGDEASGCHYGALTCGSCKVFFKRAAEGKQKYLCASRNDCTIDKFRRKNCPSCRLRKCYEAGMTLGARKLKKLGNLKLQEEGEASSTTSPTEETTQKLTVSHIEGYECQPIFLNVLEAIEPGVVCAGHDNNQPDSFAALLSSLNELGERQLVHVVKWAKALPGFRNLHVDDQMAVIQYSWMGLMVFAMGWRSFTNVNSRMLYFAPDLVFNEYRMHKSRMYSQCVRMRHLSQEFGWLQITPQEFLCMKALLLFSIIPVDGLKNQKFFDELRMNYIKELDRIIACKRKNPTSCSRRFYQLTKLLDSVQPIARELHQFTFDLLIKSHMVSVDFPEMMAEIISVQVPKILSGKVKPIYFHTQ", "assay": "Androgen receptor binding assay ([3H]R1881, HAP) in cytosol of HEK-293 cells transfected with hAR", "conditions": "relative to R1881 = 100, transfected cells"}, "[2]": {"test_system": "rat prostate, seminal vesicle, levator ani muscle", "assay": "Systemic antiandrogenic activity in orchidectomized immature male rats with DHT implant", "assay_type": "in vivo", "conditions": "Rattus norvegicus, 168 h, rat +DHT, s.c. or p.o. (route not marked), 0.5 mg/animal daily 7 days"}, "[3]": {"test_system": "sebaceous glands of the left ear", "assay": "Topical antiandrogenic activity, ear sebaceous glands model in the male hamster", "assay_type": "in vivo", "conditions": "3 μg daily dose for 14 days", "method": "Column 5 represents the percentage of inhibition of the area of the sebaceous glands of the left ear of the treated animals versus the area of the sebaceous glands of the left ear of the control animals. A 3 μg-daily dose for 14 days of tested compound dissolved in ten μL solution of ethanol: propylene Glycol (1:1; v: v) applied onto a region between the two cartilage ridges of the ventral surface of left pinna.\nD—In vivo Assessment of Topical Antiandrogenic Activity\nThe antiandrogenic activity of compounds for topical use was determined using the ear sebaceous glands model in the male hamster.\nMale Golden Syrian Hamsters (SYR) of 110-120 g were obtained from Harlan Sprague-Dawley (Madison, USA) and housed up to 2 per plastic cage in a temperature (22±3° C.) and light (12 h light/day, lights on at 7h15)-controlled environment. The hamsters were fed with Certified Rodent Diet 5002 (pellet) and had access to tap water ad libitum. […]\nThe total area of the sebaceous glands (μm^2) in each examined field was calculated by the Image Analyser. We also measured the total area, which has the length of 0.953 mm and the height between stratum granulosum and the cartilage. […] Thus, for each ear, two sections were cut and two fields from each section were analyzed. The total of the four readings was averaged and the mean standard error of the mean was calculated by the image analyzer. […]"}}, "note": "Where two headings read alike, the source gives them in different places.", "data": [{"smiles": "CCC(c1ccc(OCCC2(O)CCN(c3ccc(C#N)c(C(F)(F)F)c3)CC2)cc1)N1CCCC1", "note": "(centres unmarked) [EM-7893, 4-(4-{2-[4-(1-propyl-pyrolidine)-phenoxy]-ethyl}-4-hydroxy-piperidin-1-yl)-2-trifluoromethyl-benzonitrile]", "values": [{"measurement": "IC50", "setting": "[1]; read-out: Shionogi Antiandrogenic Activity IC50, Table 2", "value": 5.1, "unit": "nM"}, {"measurement": "IC50", "setting": "[1]; read-out: Shionogi Antiandrogenic Activity IC50, Table 4", "value": 5.1, "unit": "nM"}, {"measurement": "Human Androgen Receptor Binding (%) RBA R1881 = 100", "setting": "Human Androgen Receptor; Table 2", "value": 10.3, "unit": "%"}, {"measurement": "Human Androgen Receptor Binding (%) RBA R1881 = 100", "setting": "Human Androgen Receptor; Table 4", "value": 10.3, "unit": "%"}, {"measurement": "inhibition in vivo at 0.5 mg", "setting": "[2]; read-out: Lev Ani % inhibition, Table 2, levator ani", "value": 26, "unit": "%"}, {"measurement": "inhibition in vivo at 0.5 mg", "setting": "[2]; read-out: Prostate % inhibition, Table 2", "value": 6, "unit": "%"}, {"measurement": "inhibition in vivo at 0.5 mg", "setting": "[2]; read-out: SV % inhibition, Table 2, seminal vesicle", "value": 38, "unit": "%"}, {"measurement": "Hamster Topical 3 μg dose % inhibition vs cx (area of sebaceous glands of the left ear)", "setting": "[3]", "value": 47, "unit": "%"}]}]}
